What follows are compounds tested against Human Factor D (Homo sapiens (Human), UniProt P00746) (assay: Human Factor D Assay). Conditions: Factor D inhibition, assay of Example 10; read-out: IC5 (Stars).
Sequence of Human Factor D (P00746 26-253): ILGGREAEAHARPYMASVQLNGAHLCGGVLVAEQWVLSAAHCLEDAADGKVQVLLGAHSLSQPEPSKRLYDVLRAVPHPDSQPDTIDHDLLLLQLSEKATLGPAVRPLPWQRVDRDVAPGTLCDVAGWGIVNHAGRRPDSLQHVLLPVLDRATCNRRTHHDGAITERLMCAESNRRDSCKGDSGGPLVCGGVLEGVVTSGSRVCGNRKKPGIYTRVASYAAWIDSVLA
Format: biochemical
Procedure, shortened: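 Serum-purified Factor D (80 nM final) preincubated 5 min at room temperature with compound in 50 mM Tris, 1 M NaCl, pH 7.5. Z-L-Lys-SBz and DTNB added at 100 μM each; A405 followed every 30 s for 30 min. IC50 from nonlinear regression of rates versus concentration.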
Work on `CC(=O)c1nn(CC(=O)N2C[C@H](F)C[C@H]2C(=O)Nc2cccc(I)n2)c2ccc(-c3cnc(C)nc3)cc12` [Compound 439, (2S,4R)-1-(2-(3-acetyl-5-(2-methylpyrimidin-5-yl)-1H-indazol-1-yl)acetyl)-4-fluoro-N-(6-iodopyridin-2-yl)pyrrolidine-2-carboxamide] yielded an IC50 of under 1000 nM. `CC(=O)c1nn(CC(=O)N2C[C@H](F)C[C@H]2C(=O)Nc2ccccn2)c2ccc(-c3cnc(C)nc3)cc12` [Compound 440, (2S,4R)-1-(2-(3-acetyl-5-(2-methylpyrimidin-5-yl)-1H-indazol-1-yl)acetyl)-4-fluoro-N-(pyridin-2-yl)pyrrolidine-2-carboxamide] showed an IC50 of under 1000 nM. For `CC(=O)c1nn(CC(=O)N2[C@H](C(=O)Nc3nc(Br)ccc3C)C[C@@]3(CNc4ccn(CC(F)(F)F)n4)C[C@@H]23)c2c(C)cc(-c3cnc(C)nc3)cc12` [Compound 441, (1R,3S,5R)-2-(2-(3-acetyl-7-methyl-5-(2-methylpyrimidin-5-yl)-1H-indazol-1-yl)acetyl)-N-(6-bromo-3-methylpyridin-2-yl)-5-(((1-(2,2,2-trifluoroethyl)-1H-pyrazol-3-yl)amino)methyl)-2-azabicyclo[3.1.0]hexane-3-carboxamide], the IC50 was under 1000 nM. In the case of `Cc1ncc(-c2ccc3c(cnn3CC(=O)N3C[C@H](F)C[C@H]3C(=O)Nc3cccc(Br)n3)c2)cn1` [Compound 444, (2S,4R)-N-(6-bromopyridin-2-yl)-4-fluoro-1-(2-(5-(2-methylpyrimidin-5-yl)-1H-indazol-1-yl)acetyl)pyrrolidine-2-carboxamide], the IC50 is reported as 1000 to 10000 nM. `CCc1nn(CC(=O)N2C[C@H](F)C[C@H]2C(=O)Nc2cccc(Br)n2)c2ccc(-c3cnc(C)nc3)cc12` [Compound 445, (2S,4R)-N-(6-bromopyridin-2-yl)-1-(2-(3-ethyl-5-(2-methylpyrimidin-5-yl)-1H-indazol-1-yl)acetyl)-4-fluoropyrrolidine-2-carboxamide] gave an IC50 of 1000 to 10000 nM. In the case of `CC(=O)c1nn(CC(=O)N2C[C@H](F)C[C@H]2C(=O)N(C)c2cccc(Br)n2)c2ccc(-c3cnc(C)nc3)cc12` [Compound 446, (2S,4R)-1-(2-(3-acetyl-5-(2-methylpyrimidin-5-yl)-1H-indazol-1-yl)acetyl)-N-(6-bromopyridin-2-yl)-4-fluoro-N-methylpyrrolidine-2-carboxamide], the IC50 is reported as over 10000 nM. With `CC(=O)c1nn(CC(=O)N2[C@H](C(=O)Nc3cncc(Br)n3)C[C@@]3(Cc4nc(C)no4)C[C@@H]23)c2c(C)cc(-c3cnc(C)nc3)cc12` [Compound 447, (1R,3S,5R)-2-(2-(3-acetyl-7-methyl-5-(2-methylpyrimidin-5-yl)-1H-indazol-1-yl)acetyl)-N-(6-bromopyrazin-2-yl)-5-((3-methyl-1,2,4-oxadiazol-5-yl)methyl)-2-azabicyclo[3.1.0]hexane-3-carboxamide] the IC50 was under 1000 nM. `CC(=O)c1cn(CC(=O)N2[C@H](C(=O)Nc3nc(OC(F)(F)F)ccc3C)C[C@@]3(C)C[C@@H]23)c2c(C)cc(-c3cnc(C)nc3)cc12` [Compound 448, (1R,3S,5R)-2-(2-(3-acetyl-7-methyl-5-(2-methylpyrimidin-5-yl)-1H-indo1-1-yl)acetyl)-5-methyl-N-(3-methyl-6-(trifluoromethoxy)pyridin-2-yl)-2-azabicyclo[3.1.0]hexane-3-carboxamide] gave an IC50 of under 1000 nM. Compound `CC(=O)c1nn(CC(=O)N2[C@H](C(=O)Nc3cccc(Oc4ccccn4)n3)C[C@@]3(C)C[C@@H]23)c2c(C)cc(-c3cnc(C)nc3)cc12` [Compound 449, (1R,3S,5R)-2-(2-(3-acetyl-7-methyl-5-(2-methylpyrimidin-5-yl)-1H-indazol-1-yl)acetyl)-5-methyl-N-(6-(pyridin-2-yloxy)pyridin-2-yl)-2-azabicyclo[3.1.0]hexane-3-carboxamide] has an IC50 of under 1000 nM. For `CC(=O)c1nn(CC(=O)N2[C@H](C(=O)Nc3nc(-c4ccccn4)ccc3C)C[C@@]3(C)C[C@@H]23)c2ccc(-c3cnc(C)nc3)cc12` [Compound 450, (1R,3S,5R)-2-(2-(3-acetyl-5-(2-methylpyrimidin-5-yl)-1H-indazol-1-yl)acetyl)-5-methyl-N-(5-methyl-[2,2′-bipyridin]-6-yl)-2-azabicyclo[3.1.0]hexane-3-carboxamide], the IC50 was 1000 to 10000 nM. `CC(=O)c1nn(CC(=O)N2[C@H](C(=O)Nc3cccc(-n4ccccc4=O)n3)C[C@@]3(C)C[C@@H]23)c2c(C)cc(-c3cnc(C)nc3)cc12` [Compound 451, (1R,3S,5R)-2-(2-(3-acetyl-7-methyl-5-(2-methylpyrimidin-5-yl)-1H-indazol-1-yl)acetyl)-5-methyl-N-(2-oxo-2H-[1,2′-bipyridin]-6′-yl)-2-azabicyclo[3.1.0]hexane-3-carboxamide] showed an IC50 of under 1000 nM. `CC(=O)c1nn(CC(=O)N2[C@H](C(=O)Nc3nc(Br)ccc3C)C[C@@]3(C)C[C@@H]23)c2ccc(-c3ccncc3)cc12` [Compound 452, (1R,3S,5R)-2-(2-(3-acetyl-5-(pyridin-4-yl)-1H-indazol-1-yl)acetyl)-N-(6-bromo-3-methylpyridin-2-yl)-5-methyl-2-azabicyclo[3.1.0]hexane-3-carboxamide] was tested, and the IC50 was under 1000 nM. With `CC(=O)c1nn(CC(=O)N2[C@H](C(=O)Nc3nc(Br)ccc3C)C[C@@]3(C)C[C@@H]23)c2ccc(-c3ccc(C)cn3)cc12` [Compound 453, (1R,3S,5R)-2-(2-(3-acetyl-5-(5-methylpyridin-2-yl)-1H-indazol-1-yl)acetyl)-N-(6-bromo-3-methylpyridin-2-yl)-5-methyl-2-azabicyclo[3.1.0]hexane-3-carboxamide] the IC50 was under 1000 nM. `CC(=O)c1nn(CC(=O)N2[C@H](C(=O)Nc3cc(C)cc(Br)n3)C[C@@]3(C)C[C@@H]23)c2c(C)cc(-c3cnc(C)nc3)cc12` [Compound 456, (1R,3S,5R)-2-(2-(3-acetyl-7-methyl-5-(2-methylpyrimidin-5-yl)-1H-indazol-1-yl)acetyl)-N-(6-bromo-4-methylpyridin-2-yl)-5-methyl-2-azabicyclo[3.1.0]hexane-3-carboxamide] gave an IC50 of under 1000 nM. `CC(=O)c1cn(CC(=O)N2[C@H](C(=O)Nc3nc(Br)c(F)cc3C)C[C@@]3(C)C[C@@H]23)c2ccc(-c3cnc(C)nc3)cc12` [Compound 457, (1R,3S,5R)-2-(2-(3-acetyl-5-(2-methylpyrimidin-5-yl)-1H-indol-1-yl)acetyl)-N-(6-bromo-5-fluoro-3-methylpyridin-2-yl)-5 methyl-2-azabicyclo[3.1.0]hexane-3-carboxamide] showed an IC50 of under 1000 nM. `CC(=O)c1nn(CC(=O)N2[C@H](C(=O)N[C@@H](CC(C)C)C(=O)O)C[C@@]3(C)C[C@@H]23)c2c(C)cc(-c3cnc(C)nc3)cc12` [Compound 458, ((1R,3S,5R)-2-(2-(3-acetyl-7-methyl-5-(2-methylpyrimidin-5-yl)-1H-indazol-1-yl)acetyl)-5-methyl-2-azabicyclo[3.1.0]hexane-3-carbonyl)-L-leucine] was tested, and the IC50 was under 1000 nM. `CC(=O)c1cn(CC(=O)N2[C@H](C(=O)Nc3nc(C(F)(F)F)ccc3C)C[C@@]3(C)C[C@@H]23)c2c(C)cc(-c3cnc(C)nc3)cc12` [Compound 459, (1R,3S,5R)-2-(2-(3-acetyl-7-methyl-5-(2-methylpyrimidin-5-yl)-1H-indol-1-yl)acetyl)-5-methyl-N-(3-methyl-6-(trifluoromethyl)pyridin-2-yl)-2-azabicyclo[3.1.0]hexane-3-carboxamide] showed an IC50 of under 1000 nM. Work on `CC(=O)c1nn(CC(=O)N2[C@H](C(=O)Nc3cccn(-c4ccccn4)c3=O)C[C@@]3(C)C[C@@H]23)c2c(C)cc(-c3cnc(C)nc3)cc12` [Compound 460, (1R,3S,5R)-2-{2-[3-Acetyl-7-methyl-5-(2-methylpyrimidin-5-yl)indazol-1-yl]acetyl}-5-methyl-N-{2-oxo-[1,2′-bipyridine]-3-yl}-2-azabicyclo[3.1.0]hexane-3-carboxamide] yielded an IC50 of under 1000 nM. Compound `CC(=O)c1nn(CC(=O)N2[C@H](C(=O)Nc3cc(Br)ncc3F)C[C@@]3(C)C[C@@H]23)c2cnc(-c3cnc(C)nc3)cc12` [Compound 461, (1R,3S,5R)-2-(2-(3-acetyl-5-(2-methylpyrimidin-5-yl)-1H-pyrazolo[3,4-c]pyridin-1-yl)acetyl)-N-(2-bromo-5-fluoropyridin-4-yl)-5-methyl-2-azabicyclo[3.1.0]hexane-3-carboxamide] has an IC50 of 1000 to 10000 nM.

Same assay, conditions: Table 8; Factor D 80 nM, substrate Z-L-Lys-SBz; read-out: IC50
Compound `CC(=O)c1nn(CC(=O)N2[C@H](C(=O)Nc3nc(Br)ccc3C)C[C@@]3(CNC(=O)COCCOCCNC(=O)COCCOCCNC(=O)CC[C@H](NC(=O)CCCCCCCCCCCCCCCCC(=O)O)C(=O)O)C[C@@H]23)c2cnc(-c3cnc(C)nc3)cc12` [Compound 442, (S)-1-((1R,3S,5R)-2-(2-(3-acetyl-5-(2-methylpyrimidin-5-yl)-1H-pyrazolo[3,4-c]pyridin-1-yl)acetyl)-3-((6-bromo-3-methylpyridin-2-yl)carbamoyl)-2-azabicyclo[3.1.0]hexan-5-yl)-24-carboxy-3,12,21,26-tetraoxo-5,8,14,17-tetraoxa-2,11,20,25-tetraazatritetracontan-43-oic acid] has an IC50 of under 1000 nM. For `CCCCCCCCCCCCCCCC(=O)NCCCC[C@H](NC(=O)[C@H](CCC(=O)O)NC(=O)[C@H](Cc1ccc(O)cc1)NC(=O)[C@H](CCC(=O)O)NC(C)=O)C(=O)N[C@@H](CCC(=O)O)C(=O)N[C@@H](Cc1ccc(O)cc1)C(=O)N[C@@H](CCC(=O)O)C(=O)NC[C@@]12C[C@@H](C(=O)Nc3nc(Br)ccc3C)N(C(=O)Cn3nc(C(C)=O)c4cc(-c5cnc(C)nc5)cc(C)c43)[C@@H]1C2` [Compound 443, (4S,7S,10S,13S,16S,19S,22S)-22-acetamido-4-((((1R,3S,5R)-2-(2-(3-acetyl-7-methyl-5-(2-methylpyrimidin-5-yl)-1H-indazol-1-yl)acetyl)-3-((6-bromo-3-methylpyridin-2-yl)carbamoyl)-2-azabicyclo[3.1.0]hexan-5-yl)methyl)carbamoyl)-10,16-bis(2-carboxyethyl)-7,19-bis(4-hydroxybenzyl)-6,9,12,15,18,21-hexaoxo-13-(4-palmitamidobutyl)-5,8,11,14,17,20-hexaazapentacosanedioic acid], the IC50 was 1000 to 10000 nM.

Source: patent US11084800B2 (Achillion Pharmaceuticals, Inc., priority 2017, dated 2021)
